Test results published in patent publication US7058616B1, “Method and system for predicting resistance of a disease to a therapeutic agent using a neural network” (Virco Bvba, priority 2000, dated 2006).

Legend:
HIV-1 [1] = conditions: cited from earlier work; for Effect of 333D/E mutation: reverses the M184V effect
HIV-1 [2] = assay: MT-4 cell viral cytopathic effect protection assay, phenotypic susceptibility of patient recombinant virus; assay type: cell-based
Procedure: Phenotypic susceptibility was determined using a MT-4 cell viral cytopathic effect protection assay. See, e.g., Kashiwase et al., Chemotherapy 45(1):48–55 (1999), expressly incorporated herein by reference; Larder et al., Antimicrob. Agents Chemother. 43(8):1961–1967 (1999).

In the case of `Cc1cn([C@H]2C[C@H](N=[N+]=[N-])[C@@H](CO)O2)c(=O)[nH]c1=O` [AZT, 3′-azido-3′-deoxythymidine], the “Effect of M184V mutation on AZT resistance” value (HIV-1 [1]) is listed as “reverses AZT resistance” and the “Effect of 333D/E mutation” value (HIV-1 [1]) is listed as “dual AZT/3TC resistance”.
For `Nc1ccn([C@@H]2CS[C@H](CO)O2)c(=O)n1` [3TC], the “Effect of M184V mutation on 3TC susceptibility” value (HIV-1 [1]) is listed as “confers resistance”, the “Effect of 333D/E mutation” value (HIV-1 [1]) is listed as “dual AZT/3TC resistance” and the “actual phenotype resistance level” value (HIV-1 [2]; Table 3 testing sample 1) is listed as “S/S (A fold resistance of less than or equal to 4 is considered to be “sensitive,”)”. For the same molecule, the “actual phenotype resistance level” value (HIV-1 [2]; Table 3 testing sample 2) was “R/R (if the value is greater than 10, it is considered to be “resistant.”)”, the “actual phenotype resistance level” value (HIV-1 [2]; Table 3 testing sample 3) was “R/R (if the value is greater than 10, it is considered to be “resistant.”)” and the “actual phenotype resistance level” value (HIV-1 [2]; Table 3 testing sample 4) was “S/S (A fold resistance of less than or equal to 4 is considered to be “sensitive,”)”. For the same molecule, the “actual phenotype resistance level” value (HIV-1 [2]; Table 3 testing sample 5) was “R/R (if the value is greater than 10, it is considered to be “resistant.”)”, the “actual phenotype resistance level” value (HIV-1 [2]; Table 3 testing sample 6) was “R (if the value is greater than 10, it is considered to be “resistant.”)” and the “actual phenotype resistance level” value (HIV-1 [2]; Table 3 testing sample 7) was “R/R (if the value is greater than 10, it is considered to be “resistant.”)”. For the same molecule, the “actual phenotype resistance level” value (HIV-1 [2]; Table 3 testing sample 8) was “R/R (if the value is greater than 10, it is considered to be “resistant.”)”, the “actual phenotype resistance level” value (HIV-1 [2]; Table 3 testing sample 9) was “R/R (if the value is greater than 10, it is considered to be “resistant.”)” and the “actual phenotype resistance level” value (HIV-1 [2]; Table 3 testing sample 10) was “S/S (A fold resistance of less than or equal to 4 is considered to be “sensitive,”)”.
In the case of `CC(C)(C)NC(=O)[C@@H]1CN(Cc2cccnc2)CCN1C[C@@H](O)C[C@@H](Cc1ccccc1)C(=O)N[C@H]1c2ccccc2C[C@H]1O` [Indinavir], the “actual phenotype resistance level” value (HIV-1 [2]; PI test sample 4) is reported as “R/R (if the value is greater than 10, it is considered to be ‘resistant’)”, the “actual phenotype resistance level” value (HIV-1 [2]; PI test sample 5) is reported as “R (if the value is greater than 10, it is considered to be ‘resistant’)” and the “actual phenotype resistance level” value (HIV-1 [2]; PI test sample 6) is reported as “S/S (A fold resistance of less than or equal to 4 is considered to be ‘sensitive’)”. For the same molecule, the “actual phenotype resistance level” value (HIV-1 [2]; PI test sample 7) was “S/S (A fold resistance of less than or equal to 4 is considered to be ‘sensitive’)”, the “actual phenotype resistance level” value (HIV-1 [2]; PI test sample 8) was “S/S (A fold resistance of less than or equal to 4 is considered to be ‘sensitive’)” and the “actual phenotype resistance level” value (HIV-1 [2]; PI test sample 9) was “S/S (A fold resistance of less than or equal to 4 is considered to be ‘sensitive’)”. The “actual phenotype resistance level” value (HIV-1 [2]; PI test sample 10) was “S/S (A fold resistance of less than or equal to 4 is considered to be ‘sensitive’)”, the “actual phenotype resistance level” value (HIV-1 [2]; PI test sample 11, listed as IDV) was “S (A fold resistance of less than or equal to 4 is considered to be ‘sensitive’)” and the “actual phenotype resistance level” value (HIV-1 [2]; PI test sample 12) was “S/S (A fold resistance of less than or equal to 4 is considered to be ‘sensitive’)”. The “actual phenotype resistance level” value (HIV-1 [2]; PI test sample 13) was “R/R (if the value is greater than 10, it is considered to be ‘resistant’)”, the “actual phenotype resistance level” value (HIV-1 [2]; PI test sample 14) was “R/R (if the value is greater than 10, it is considered to be ‘resistant’)” and the “actual phenotype resistance level” value (HIV-1 [2]; PI test sample 16) was “R/R (if the value is greater than 10, it is considered to be ‘resistant’)”. For the same molecule, the “actual phenotype resistance level” value (HIV-1 [2]; PI test sample 17) was “R/R (if the value is greater than 10, it is considered to be ‘resistant’)”, the “actual phenotype resistance level” value (HIV-1 [2]; PI test sample 22) was “S (A fold resistance of less than or equal to 4 is considered to be ‘sensitive’)” and the “actual phenotype resistance level” value (HIV-1 [2]; PI test sample 23) was “R/R (if the value is greater than 10, it is considered to be ‘resistant’)”. For the same molecule, the “actual phenotype resistance level” value (HIV-1 [2]; PI test sample 24) was “R/R (if the value is greater than 10, it is considered to be ‘resistant’)”, the “actual phenotype resistance level” value (HIV-1 [2]; PI test sample 26) was “R/R (if the value is greater than 10, it is considered to be ‘resistant’)” and the “actual phenotype resistance level” value (HIV-1 [2]; PI test sample 27) was “R/R (if the value is greater than 10, it is considered to be ‘resistant’)”. For the same molecule, the “actual phenotype resistance level” value (HIV-1 [2]; PI test sample 28) was “R/R (if the value is greater than 10, it is considered to be ‘resistant’)”, the “actual phenotype resistance level” value (HIV-1 [2]; PI test sample 32) was “R/R (if the value is greater than 10, it is considered to be ‘resistant’)” and the “actual phenotype resistance level” value (HIV-1 [2]; PI test sample 35) was “R/R (if the value is greater than 10, it is considered to be ‘resistant’)”. For the same molecule, the “actual phenotype resistance level” value (HIV-1 [2]; PI test sample 36) was “R/R (if the value is greater than 10, it is considered to be ‘resistant’)”, the “actual phenotype resistance level” value (HIV-1 [2]; PI test sample 37) was “I/I (greater than 4 and less than 10 is considered to be ‘intermediate’)” and the “actual phenotype resistance level” value (HIV-1 [2]; PI test sample 38) was “R/R (if the value is greater than 10, it is considered to be ‘resistant’)”. For the same molecule, the “actual phenotype resistance level” value (HIV-1 [2]; PI test sample 39) was “R/R (if the value is greater than 10, it is considered to be ‘resistant’)”, the “actual phenotype resistance level” value (HIV-1 [2]; PI test sample 40) was “R/R (if the value is greater than 10, it is considered to be ‘resistant’)” and the “actual phenotype resistance level” value (HIV-1 [2]; PI test sample 43) was “I/I (greater than 4 and less than 10 is considered to be ‘intermediate’)”. For the same molecule, the “actual phenotype resistance level” value (HIV-1 [2]; PI test sample 45) was “R/R (if the value is greater than 10, it is considered to be ‘resistant’)”, the “actual phenotype resistance level” value (HIV-1 [2]; PI test sample 46) was “R/R (if the value is greater than 10, it is considered to be ‘resistant’)” and the “actual phenotype resistance level” value (HIV-1 [2]; PI test sample 47, listed as IDV) was “R/R (if the value is greater than 10, it is considered to be ‘resistant’)”. For the same molecule, the “actual phenotype resistance level” value (HIV-1 [2]; PI test sample 48) was “R/R (if the value is greater than 10, it is considered to be ‘resistant’)”, the “actual phenotype resistance level” value (HIV-1 [2]; PI test sample 49) was “R/R (if the value is greater than 10, it is considered to be ‘resistant’)” and the “actual phenotype resistance level” value (HIV-1 [2]; PI test sample 51) was “R/R (if the value is greater than 10, it is considered to be ‘resistant’)”. For the same molecule, the “actual phenotype resistance level” value (HIV-1 [2]; PI test sample 53) was “R/R (if the value is greater than 10, it is considered to be ‘resistant’)”, the “actual phenotype resistance level” value (HIV-1 [2]; Table 3 testing sample 1) was “S/S (A fold resistance of less than or equal to 4 is considered to be “sensitive,”)” and the “actual phenotype resistance level” value (HIV-1 [2]; Table 3 testing sample 2) was “S/S (A fold resistance of less than or equal to 4 is considered to be “sensitive,”)”. For the same molecule, the “actual phenotype resistance level” value (HIV-1 [2]; Table 3 testing sample 5) was “R/R (if the value is greater than 10, it is considered to be “resistant.”)”, the “actual phenotype resistance level” value (HIV-1 [2]; Table 3 testing sample 7) was “S/S (A fold resistance of less than or equal to 4 is considered to be “sensitive,”)” and the “actual phenotype resistance level” value (HIV-1 [2]; Table 3 testing sample 9) was “S/S (A fold resistance of less than or equal to 4 is considered to be “sensitive,”)”. The “actual phenotype resistance level” value (HIV-1 [2]; Table 3 testing sample 10) was “S (A fold resistance of less than or equal to 4 is considered to be “sensitive,”)”, the actual phenotype (HIV-1 [2]; Table 13/14 sample 2: 10I,46I,48V,77I,82A,90M, 10E,58E,63T) was “S (A fold resistance of less than or equal to 4 is considered to be ‘sensitive’)” and the actual phenotype (HIV-1 [2]; Table 13/14 sample 8: 10I,54V,71V,73S,84V,90M, 33M,63P) was “I (greater than 4 and less than 10 is considered to be ‘intermediate’)”. For the same molecule, the actual phenotype (HIV-1 [2]; Table 13/14 sample 13: 10I,36I,71T,90M, 63P,73T) was “I (greater than 4 and less than 10 is considered to be ‘intermediate’)”, the actual phenotype (HIV-1 [2]; Table 13/14 sample 14: 10I,46I,71T,77I,90M, 57K,63P,93L) was “S (A fold resistance of less than or equal to 4 is considered to be ‘sensitive’)” and the actual phenotype (HIV-1 [2]; Table 13/14 sample 17: 46I,77I,90M, 10F,20L,63P) was “I (greater than 4 and less than 10 is considered to be ‘intermediate’)”. The actual phenotype (HIV-1 [2]; Table 13/14 sample 18: 36I,71T,90M, 63P,93L) was “S (A fold resistance of less than or equal to 4 is considered to be ‘sensitive’)”, the actual phenotype (HIV-1 [2]; Table 13/14 sample 20: 77I,88S, 13V, 63P, 93L) was “S (A fold resistance of less than or equal to 4 is considered to be ‘sensitive’)” and the actual phenotype (HIV-1 [2]; Table 13/14 sample 21: 10I,77I,84V,90M, 63Q) was “I (greater than 4 and less than 10 is considered to be ‘intermediate’)”. The actual phenotype (HIV-1 [2]; Table 13/14 sample 22: 10I,20R,36I,71V,73S,84V,90M, 13V,63P) was “R (if the value is greater than 10, it is considered to be ‘resistant’)”.
